Data set [1] has as its system Rice (Nipponbare) calluses transformed with pCAMBIA1302-sGFP. As to the kind of experiment: Redifferentiation and rooting test, control rice callus transformed with pCAMBIA1302-sGFP. Format: cell-based, Oryza sativa. As to the method: After selective culturing, the callus was transplanted onto a rice redifferentiation medium RE-III (containing 50 ppm hygromycin or 0.25 μM bispyribac sodium), cultured at 27 degree C. under 16L/8D conditions, and led to redifferentiate. The callus was plated after 2 weeks. At additional about 2 to 3 weeks, a redifferentiated, transformed rice (T0) was obtained. Once a differentiated shoot and/or root had appeared, the rice was transplanted onto a hormone-free (HF) medium (containing 50 ppm hygromycin or 0.25 μM bispyribac sodium).
According to Example 5, an HptII::35Spro::Kasalath CYP72A31::Tnos vector plasmid (pCAMBIA1390-KasCYP72A31, a kasCYP72A31 overexpression construct) or, as controls, an HptII::35Spro::sGFP::Tnos vector plasmid (pCAMBIA1302-sGFP, an sGFP overexpression construct) or an OsALS (W548L/S627I)::OsAct-1pro::sGFP::Tnos vector plasmid (pSTARA-sGFP, a BS-resistant construct) was introduced into a rice variety (a cultivar: Nipponbare) by using an Agrobacterium method. According to a schedule designated in FIG. 12A), transformed calluses were selected with 50 ppm hygromycin. […] Of all the calluses, 43 calluses were transplanted onto a redifferentiation medium containing 0.25 μM BS.
Rice (Nipponbare) calluses transformed with a pCAMBIA1390-KasCYP72A31 construct in Example 8 were obtained by 50 ppm hygromycin selection. […]

The subject of data set [2] is Rice (Nipponbare) calluses transformed with pCAMBIA1390-KasCYP72A31. As to the kind of experiment: Selection of drug-resistant callus in N6D medium, pCAMBIA1390-KasCYP72A31. Format: cell-based, Oryza sativa. The settings on record: 4 weeks. The method, then: Rice transformed with pCAMBIA1390-KasCYP72A31 was used to examine whether a Kasalath-derived CYP72A31 gene was able to be used as a selection marker for transformation with BS as a selection reagent. According to Example 5, rice (Nipponbare) was transformed with pCAMBIA1390-KasCYP72A31 or pSTARA-sGFP by using an Agrobacterium method.
Rice (Nipponbare) calluses transformed with pCAMBIA1390-KasCYP72A31 were cultured for 4 weeks in an N6D medium containing 0.1 or 0.25 μM BS or an N6D medium containing 50 ppm hygromycin to select drug-resistant calluses. Also, rice calluses transformed with pSTARA-sGFP were selected in a similar manner in an N6D medium containing 0.25 μM BS.

For data set [3], the system named is Arabidopsis thaliana K32-1-1, K32-3-1 and K32-5-1. As to the kind of experiment: Growth test in BS-containing medium, Arabidopsis transformed with Kasalath-derived CYP72A32. Format: in vivo. The note with it: day 10 from onset of cultivation, compared to NT. An excerpt:
(§1) In this Example, Agrobacterium as prepared in Example 4 was used to introduce HptII::35Spro::Kasalath CYP72A31::Tnos vector plasmid (pCAMBIA1390-KasCYP72A31), HptII::35Spro::Kasalath CYP72A32::Tnos vector plasmid (pCAMBIA1390-KasCYP72A32), or HptII::35Spro::Kasalath CYP72A33::Tnos vector plasmid (pCAMBIA1390-KasCYP72A33) into Arabidopsis thaliana (ecotype: Col-0) by using a floral-dip method. The floral-dip method followed a standard method. […] K31-4-2 and K31-6-5 were selected as fixed lines derived from pCAMBIA1390-KasCYP72A31; K32-1-1, K32-3-1, and K32-5-1 were selected as fixed lines derived from pCAMBIA1390-KasCYP72A32; and K33-1-3 and K33-2-4 were selected as fixed lines derived from pCAMBIA1390-KasCYP72A33. Their seeds were seeded in a medium containing each concentration of BS, and cultivated for 10 days. FIGS. 16A and 16B illustrate the results.
Next, 15 seeds for each of non-transformed Arabidopsis thaliana (NT which is denoted by “Col-0” in FIGS. 18A-18C) and transformed plant bodies (K32-1-1 which is denoted by “K32oe-1-1” in FIGS. 18A-18C, K32-3-1 which is denoted by “K32oe-3-1” in FIGS. 18A-18C, and K32-5-1 which is denoted by “K32oe-5-” in FIGS. 18A-18C) were cultivated on a medium containing each concentration of BS. […]

The subject of data set [4] is Arabidopsis thaliana K33-1-3 and K33-2-4. Kind of data set: Growth test in BS-containing medium, Arabidopsis transformed with Kasalath-derived CYP72A33. Format: in vivo. The note with it: day 10 from onset of cultivation, compared to NT.
Description: as §1
Next, 15 seeds for each of non-transformed Arabidopsis thaliana (NT which is denoted by “Col-0” in FIGS. 19A-19C) and transformed plant bodies (K33-1-3 which is denoted by “K33oe-1-3” in FIGS. 19A-19C and K33-2-4 which is denoted by “K33oe-2-4” in FIGS. 19A-19C) were cultivated on a medium containing each concentration of BS. […]

From patent US10000765B2, “Gene encoding cytochrome P450, and use thereof” (NATIONAL INSTITUTE OF AGROBIOLOGICAL SCIENCES, priority 2011, dated 2018) come the findings set out here.

Turning to `COc1cc(OC)nc(Oc2cccc(Oc3nc(OC)cc(OC)n3)c2C(=O)O)n1` [BS, bispyribac sodium], in data set [1] (hormone-free medium containing 1 μM BS), the “Rooting and survival of plant bodies” value is “killed the plant bodies”. Further, the Redifferentiation entry in data set [1] (redifferentiation medium containing 0.25 μM BS) is on record as “found not to include those redifferentiated”. The “Selection efficiency (ratio of the resulting transformed calluses/all calluses)” value stood at 71% in data set [2] (N6D medium containing 0.1 μM BS) and 61% in data set [2] (N6D medium containing 0.25 μM BS). Also, the “BS sensitivity (germinated seeds, emerging of true leaves, fresh weight of above-ground part)” value in data set [3] and in data set [4] was “BS sensitivity equivalent to NT” each time.
